Results on two molecules are retold here after publication doi:10.1101/2025.07.30.667614, “Steric control of signaling bias in the immunometabolic receptor GPR84” (bioRxiv, 2025).

Molecules are shown by their SMILES. Where two headings read alike, the source gives them in different places.

A word on the Emax: it is the greatest response seen or fitted, relative to the assay's reference. A word on the koff: it is the first-order rate constant of dissociation. A word on the kon: it is the second-order rate constant of association.

The target of test [1] is T1, GPR84 F187A (GPR84-Gi2α fusion protein) (Homo sapiens, UniProt Q9NQS5, F187A).
T1 construct: FLAG (N); Gαi2-Cys352Ile (fusion partner) (C); expressed in transfected cells
T1 sequence (Q9NQS5 whole entry F187A, the tested form may be a part): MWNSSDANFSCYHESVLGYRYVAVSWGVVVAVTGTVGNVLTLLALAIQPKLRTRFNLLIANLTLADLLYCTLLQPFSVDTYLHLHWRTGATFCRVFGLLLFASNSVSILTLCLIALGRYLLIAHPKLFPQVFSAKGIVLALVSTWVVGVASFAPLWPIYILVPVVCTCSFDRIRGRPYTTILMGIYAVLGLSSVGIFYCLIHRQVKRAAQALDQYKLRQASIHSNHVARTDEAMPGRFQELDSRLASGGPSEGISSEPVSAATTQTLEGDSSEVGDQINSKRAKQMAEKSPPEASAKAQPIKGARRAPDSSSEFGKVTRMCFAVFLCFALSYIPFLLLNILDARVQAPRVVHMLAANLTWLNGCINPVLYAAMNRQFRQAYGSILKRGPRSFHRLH
In words: [35S]GTPγS binding assay. It counts as biochemical. Here is the method: (§1) Membranes were generated from Flp-In™ T-REx™ 293 cells following 100 ng/ml doxycycline treatment to induce receptor expression. Cells were washed with ice-cold phosphate-buffered saline (PBS), removed from dishes by scraping and centrifuged at 1,800 x g for 5 min at 4 °C. Pellets were resuspended in TE buffer (10mM Tris-HCl, 0.1 mM EDTA; pH 7.4) containing a protease inhibitor mixture and homogenized with a 5 ml hand-held homogenizer. Samples were centrifuged at 450 x g for 5 min at 4 °C and the supernatant was further centrifuged at 90,000 x g for 45 min at 4 °C. The resulting pellet was resuspended in TE buffer and protein content was assessed using a BCA protein assay kit.
(§2) Prepared membrane protein (3 μg per well) was incubated in assay buffer (20 mM HEPES, 5 mM MgCl2, 160 mM NaCl, 0.05 % fatty-acid-free bovine serum albumin; pH 7.4) containing the indicated ligand concentrations. The reaction was initiated by addition of [^35S]GTPγS (100 nCi per reaction) with 1 μM GDP, and incubated at 30 °C for 60 min. The reaction was terminated by rapid vacuum filtration through GF/C glassfibre filter-bottom 96-well microplates using a UniFilter FilterMate Harvester (PerkinElmer). Unbound radioligand was removed from filters by three washes with ice-cold PBS. Ultima Gold™ XR was added to dried filters, and [^35S]GTPγS binding quantified by liquid scintillation spectroscopy.
On the technique in general: Binding of GTPγS marks nucleotide exchange on a G protein.

For test [2], the target named is T2, GPR84 Y69A (GPR84-Gi2α fusion protein) (Homo sapiens, UniProt Q9NQS5, Y69A).
T2 construct: FLAG (N); Gαi2-Cys352Ile (fusion partner) (C); expressed in transfected cells
T2 sequence (Q9NQS5 whole entry Y69A, the tested form may be a part): as the sequence (Q9NQS5 whole entry F187A, the tested form may be a part) above, with Y69A, A187F counted along it
The test can be described thus: [35S]GTPγS binding assay. To be noted: for Emax: read-out: Emax ± SEM. It counts as biochemical. How it is done:
as §1, §2

Test [3] concerns the target T3, GPR84 (Homo sapiens, UniProt Q9NQS5). The test can be described thus: CHO-K1-based HitHunter cAMP inhibition assay. It counts as cell-based. Conditions: wild type GPR84; for EC50: CHO-K1 cells, forskolin 25 μM, read-out: cAMP pEC50 ± SEM (converted); for Emax: normalised to capric acid (100 μM), read-out: cAMP %Emax ± SEM. How it is done:
CHO-K1 cells stably expressing human GPR84 (DiscoverX 95-0158C2) were seeded in 384-well plates at 15,000 cells per well in 20 μL of F12 medium supplemented with 10% fetal bovine serum (FBS), 19 mM HEPES, and 1% penicillin-streptomycin. After overnight incubation at 37 °C and 5% CO2, the medium was removed and replaced with PBS containing 0.1% BSA. Cells were stimulated for 30 min with forskolin (25 μM) and test compounds prepared in Dulbecco’s PBS (DPBS) with 0.1% BSA. Compounds were dissolved in DMSO and diluted appropriately. cAMP levels were quantified using the HitHunter® cAMP Assay for Small Molecules (DiscoverX 90-0075SM2) according to the manufacturer’s protocol. Luminescence was measured 18 h post-assay using a PHERAstar® FS plate reader (BMG Labtech).

For test [4], the target named is T4, GPR84 (wild type) (Homo sapiens, UniProt Q9NQS5).
T4 construct: expressed in transfected cells; host or cells: Flp-In T-REx 293 cells (membranes, doxycycline-induced)
T4 sequence (Q9NQS5+P04899 fused P04899:C352I): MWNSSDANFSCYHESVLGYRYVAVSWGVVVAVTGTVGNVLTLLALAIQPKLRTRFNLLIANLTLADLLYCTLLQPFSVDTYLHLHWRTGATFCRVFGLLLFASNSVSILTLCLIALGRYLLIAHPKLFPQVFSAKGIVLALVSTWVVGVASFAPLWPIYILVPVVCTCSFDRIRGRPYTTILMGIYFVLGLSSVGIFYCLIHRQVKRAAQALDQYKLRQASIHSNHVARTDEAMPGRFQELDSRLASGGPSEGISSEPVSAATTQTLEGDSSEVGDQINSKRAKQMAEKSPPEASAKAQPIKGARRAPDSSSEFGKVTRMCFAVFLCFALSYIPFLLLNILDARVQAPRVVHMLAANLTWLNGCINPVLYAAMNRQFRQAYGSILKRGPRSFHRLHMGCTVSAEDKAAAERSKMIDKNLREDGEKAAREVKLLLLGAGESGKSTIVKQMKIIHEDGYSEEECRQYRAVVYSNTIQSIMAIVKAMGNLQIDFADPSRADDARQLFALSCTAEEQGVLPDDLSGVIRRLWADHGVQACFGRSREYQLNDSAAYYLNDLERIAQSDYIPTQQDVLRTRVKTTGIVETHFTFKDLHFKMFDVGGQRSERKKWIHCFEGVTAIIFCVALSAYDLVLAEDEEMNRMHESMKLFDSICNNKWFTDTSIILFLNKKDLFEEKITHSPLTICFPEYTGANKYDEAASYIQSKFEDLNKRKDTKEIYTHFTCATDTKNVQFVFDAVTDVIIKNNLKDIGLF
The test can be described thus: Competition binding assay with orthosteric antagonist [3H]140. How it is done: Binding was initiated by the addition of 5 μg membrane protein generated from Flp-In™ T-REx™ cells induced to express the receptor construct of interest with 100 ng/ml doxycycline. Nonspecific binding of the radioligand was determined in the presence of 10 μM compound 837. All assays were performed at 25 °C for 1 h before termination by the addition of ice-cold phosphate-buffered saline (PBS) and vacuum filtration through GF/C glassfibre filter-bottom 96-well microplates using a UniFilter FilterMate Harvester (Revvity). Each well was washed three times with ice-cold PBS and filters were allowed to dry for 2–3 h before addition of 50 μl of Ultima Gold™ XR. Radioactivity was quantified by liquid scintillation spectrometry.

The target in test [5] is T5, wild type GPR84 (Homo sapiens, UniProt Q9NQS5).
T5 construct: expressed in transfected cells
T5 sequence (Q9NQS5 whole entry): as the sequence (Q9NQS5 whole entry F187A, the tested form may be a part) above, with A187F counted along it
In words: pThr263/pThr264 GPR84 phosphorylation assay (magnetic bead capture). It counts as cell-based. To be noted: for EC50: 5 min stimulation, read-out: pEC50 ± SEM, phosphorylation of Thr263 and Thr264 (converted). How it is done: Flp-In™ TREx™ 293 cells engineered to express FLAG-GPR84-eYFP were seeded onto poly-D-lysine-coated clear 96-well plates at a density of 5 x 10^4 cells/well and grown overnight before treatment with 100 ng/ml doxycycline to induce receptor expression. After 24 h, cells were serum starved for 2 hours then stimulated with the indicated agonists, prepared in serum free media, for 5 min at 37 °C. After washing with ice-cold PBS, cells were lysed in 100 μl/well lysis buffer (150 mM NaCl, 50 mM Tris-HCl, 5 mM EDTA, 1% IGEPAL (Nonidet P-40), 0.5% deoxycholic acid, and 0.1% SDS; pH 7.4) supplemented with protease and phosphatase inhibitor cocktail on an orbital shaker for 1 hour at 4 °C. Lysates were cleared by centrifugation at 3700 × g for 20 min at 4 °C and 80 μl of supernatants transferred into 96-U-bottom-well assay plates (Greiner Bio-One). GFP-Trap® magnetic agarose beads (1 μl/well) were washed then diluted in lysis buffer to give a total volume of 20 μl of bead slurry per well before adding to supernatant. Assay plates were incubated on a microplate shaker at 700 rpm for 2 h at 4 °C then washed three times with 100 μl of PBS with 0.1% Tween-20 (PBS-T) under magnetic force using a handheld magnetic separation block (Milliplex, Millipore). After washing, anti-pThr263/pThr264 antiserum was diluted 1:1000 in PBS-T then 60 μl added to assay plate. The plates were then incubated overnight at 4 °C on a microplate shaker. After another wash cycle (3 x with PBS-T), anti-rabbit horseradish […] (HRP)-linked secondary antibody was added to PBS-T to a final dilution of 1:10,000 and incubated on a microplate shaker for 2 h at room temperature. After a further wash cycle, 100 μl of TMB substrate solution was added to each well and the plates were incubated for 15 min. The reaction was stopped by the addition of 100 μl of 0.3 M sulphuric acid. The assay plates were then placed on a magnetic separation block and 100 μl of the supernatant was transferred to a transparent 96-well F-bottom plate. The OD at 450 nm was then read on a PHERAstar FS plate reader (BMG Labtech).

The target in test [6] is T3, GPR84. In words: Competition binding kinetics of [3H]140 (on and off rates of unlabeled ligands). Conditions: for Kd: read-out: Koff/Kon. Also on record: expressed in transfected cells; host or cells: membranes. How it is done:
The kinetic binding parameters of unlabeled ligands were determined through assessment of the binding kinetics of [^3H]140.[21] […] At the indicated time points, membrane protein was added, and tubes were gently agitated. Three different concentrations of competitor were assessed to ensure that the rate parameters calculated were independent of ligand concentration.

Where [7] appears, read: F187A, read-out: pEC50 ± SEM (converted).
[8] abbreviates: competition with [3H]140, Fig. 1f, read-out: pKi (converted).

T3 sequence (Q9NQS5 whole entry): as the sequence (Q9NQS5 whole entry F187A, the tested form may be a part) above, with A187F counted along it

In the case of `Cc1cc(CCCc2cc(O)c[n+]([O-])c2)ccc1Cl` [OX04954], the EC50 in test [1] (setting [7]) is 0.107 nM; in test [2] ([35S]GTPγS, Y69A), 5.13 nM; in test [3], 0.0126 nM; in test [5], 7.59 nM. Further, the Emax in test [2] ([35S]GTPγS, Y69A) is 106 ± 4%; in test [3], 98 ± 1.8%. In addition, the Ki in test [4] (setting [8]) is 6.76 nM. The koff in test [6] (Fig. 1g, read-out: Koff (converted)) was 0.000429 s⁻¹. Moreover, in test [6] (Fig. 1g), the Kd was 1.83 ± 0.31 nM. In addition, the kon in test [6] (Fig. 1g, read-out: Kon (converted)) was 254000 M⁻¹ s⁻¹.
For `[O-][n+]1cc(O)cc(CCc2ccc(Cl)c(C(F)(F)F)c2)c1` [OX04529], the EC50 in test [1] (setting [7]) is 0.102 nM; in test [1] (Phe187Ala, read-out: EC50), roughly 0.1 nM; in test [2] ([35S]GTPγS, Y69A), 4.57 nM; in test [3], 0.012 nM; in test [5], 12.3 nM. Also, in test [1] (Phe187Ala), the “fold greater potency than at wild type” value is “more than 10 fold”. Besides, the Emax in test [2] turned out to be 94 ± 9%; in test [3], 97 ± 0.2%. For the same molecule, the Ki was 51.3 nM in test [4] (GPR84-Gi2 fusion protein stable cell line, Extended Data Fig. 7, read-out: pKi (WT) (converted)) and 10.2 nM in test [4] (setting [8]). Also, the “potency and efficacy in promoting phosphorylation of Thr263/Thr264” value in test [5] (magnetic bead capture assay) is “weak efficacy”. In test [6], this molecule had a koff of 0.000649 s⁻¹. Besides, in test [6], the on-rate constant (kon) was 443000 M⁻¹ s⁻¹. Moreover, in test [6] (Fig. 1g), the Kd was 1.54 ± 0.2 nM.
